Reference: article PMC4935745, “Synthesis and stereochemical determination of an antiparasitic pseudo-aminal type monoterpene indole alkaloid” (Journal of Natural Medicines, 2016)
Values after ≈ are worked out from the molar mass of the structure shown. Like-named read-outs stand apart in the source and are kept apart here.

Columns and labels:
Assay type in all cases: cell-based
[1] = tested on: Plasmodium falciparum (chloroquine-susceptible FCR3 strain); assay: In vitro antimalarial activity, FCR3 strain; conditions: for Selectivity index (SI) M/F: MRC-5/FCR3; for IC50: Plasmodium falciparum, FCR3, chloroquine-sensitive strain, in vitro
Description: (§1) Naturally occurring and synthetic compounds were tested for antimalarial activity against Plasmodium falciparum parasites (chloroquine-resistant K1 strain and chloroquine-susceptible FCR3 strain) and for cytotoxicity (against human MCR-5 cells), in comparison with the first-line antimalarial artemisinin.

[2] = Cytotoxicity against human MRC-5 cells; conditions: human
Description: as §1

[3] = tested on: Plasmodium falciparum (chloroquine-resistant K1 strain); assay: In vitro antimalarial activity, K1 strain; conditions: for Selectivity index (SI) M/K: MRC-5/K1; for IC50: Plasmodium falciparum, K1, chloroquine-resistant strain
Description: as §1

MRC-5 cells = assay: Cytotoxicity against human MRC-5 cells; conditions: human MRC-5 cells
Description: as §1

[4] = MRC-5 cells, human MRC-5 cells, read-out: Cytotoxicity MRC-5 IC50

In the case of `C/C=C1/CNCC[C@@H]1[C@@](C)(O)c1cc2ccccc2[nH]1` (racemic) [(±)-(15S,16R)-37], the “Selectivity index (SI) M/F” value [1] is reported as less than 3.3, the IC50 [1] is reported as greater than 12.5 µg/mL and the IC50 [2, 4] is reported as 40.8 µg/mL (≈ 151 µM). For the same compound, the “Selectivity index (SI) M/K” value [3] was 4.5 and the IC50 ([3]; in vitro) was 8.98 µg/mL (≈ 33.2 µM).

`CC=C1CN2CCC1C(C)(O)c1[nH]c3ccccc3c1C2` (racemic) [Synthetic (±)-(15S*,16S*)-1, (±)-(15S*,16S*)-16-hydroxy-16,22-dihydroapparicine] showed an IC50 [2, 4] of 33.3 µg/mL (≈ 118 µM) and an IC50 ([3]; in vitro) greater than 12.5 µg/mL.

In the case of `CC=C1CN2CCC1C(C)(O)c1[nH]c3ccccc3c1C2` (single isomer, unassigned; (+)) [Synthetic (+)-(15S,16R)-1], the “Selectivity index (SI) M/F” value [1] is reported as 6.1, the IC50 [1] is reported as 8.37 µg/mL (≈ 29.6 µM) and the “Cytotoxicity MRC-5 IC50” value (MRC-5 cells) is reported as 51.2 µg/mL. For the same compound, the “Antimalarial activity against chloroquine-resistant P. falciparum (in words)” value ([3]; K1 strain, in vitro) was “moderate/weak antimalarial activity”, the “Selectivity index (SI) M/K” value [3] was 5.7 and the “Antimalarial activity K1 IC50” value ([3]; chloroquine-resistant strain, in vitro) was 9.00 µg/mL.

With `C/C=C(/COC(=O)C(C)(C)C)[C@H](CCN=[N+]=[N-])[C@@](C)(O)c1cc2ccccc2n1CO[Si](C)(C)C(C)(C)C` [(−)-(15S,16R)-32] the IC50 [1] was greater than 12.5 µg/mL and the IC50 ([3]; in vitro) was greater than 12.5 µg/mL.

With `C/C=C(/CO)[C@H](CCN=[N+]=[N-])[C@@](C)(O)c1cc2ccccc2[nH]1` [(−)-(15S,16R)-33] the “Selectivity index (SI) M/F” value [1] was 2.5, the IC50 [1] was 7.17 µg/mL (≈ 22.8 µM) and the IC50 [2, 4] was 17.8 µg/mL (≈ 56.6 µM). The “Selectivity index (SI) M/K” value [3] was 2.3 and the IC50 ([3]; in vitro) was 7.58 µg/mL (≈ 24.1 µM).

For `C/C=C(/COc1ncccc1[N+](=O)[O-])[C@H](CCN=[N+]=[N-])[C@@](C)(O)c1cc2ccccc2[nH]1` [(−)-(15S,16R)-34], the IC50 [1] was greater than 12.5 µg/mL, the IC50 [2, 4] was greater than 100 µg/mL and the “Selectivity index (SI) M/K” value [3] was greater than 12.4. It also gave an IC50 ([3]; in vitro) of 8.04 µg/mL (≈ 18.4 µM).

For `C/C=C1/C(=O)O[C@H](C)[C@H]1CCN=[N+]=[N-]` [(−)-(15S,16R)-39], the “Selectivity index (SI) M/F” value [1] was less than 4.3, the IC50 [1] was greater than 12.5 µg/mL and the IC50 [2, 4] was 54 µg/mL (≈ 277 µM). The “Selectivity index (SI) M/K” value [3] was 5.8 and the IC50 ([3]; in vitro) was 9.38 µg/mL (≈ 48 µM).

For `C[C@@H]1CC[C@H]2[C@@H](C)C(=O)O[C@@H]3O[C@@]4(C)CC[C@@H]1[C@]32OO4` [Artemisinin, reference compound], the “Selectivity index (SI) M/F” value [1] was 7528, the IC50 [1] was 0.006 µg/mL (≈ 0.0213 µM) and the IC50 ([2]; Cytotoxicity MRC-5 IC50) was 45.2 µg/mL (≈ 160 µM). For the same compound, the “Selectivity index (SI) M/K” value [3] was 7528 and the IC50 ([3]; in vitro) was 0.006 µg/mL (≈ 0.0213 µM).
